This note sets out measurements from paper PMC7406649, “The rare sugar D-tagatose protects plants from downy mildews and is a safe fungicidal agrochemical” (Communications Biology, 2020).

Type in all cases: biochemical
The target in assay [1] is T1, phosphomannose isomerase (LC500563) (Hyaloperonospora arabidopsidis, UniProt A0A7G1GEM8).
T1 construct: coding region in pColdI, His tag kept (45 kDa), expressed in E. coli SHuffle Express, HisTrap purified; equivalent to Hpa802576 of isolate Emoy2
T1 sequence (A0A7G1GEM8 1-415): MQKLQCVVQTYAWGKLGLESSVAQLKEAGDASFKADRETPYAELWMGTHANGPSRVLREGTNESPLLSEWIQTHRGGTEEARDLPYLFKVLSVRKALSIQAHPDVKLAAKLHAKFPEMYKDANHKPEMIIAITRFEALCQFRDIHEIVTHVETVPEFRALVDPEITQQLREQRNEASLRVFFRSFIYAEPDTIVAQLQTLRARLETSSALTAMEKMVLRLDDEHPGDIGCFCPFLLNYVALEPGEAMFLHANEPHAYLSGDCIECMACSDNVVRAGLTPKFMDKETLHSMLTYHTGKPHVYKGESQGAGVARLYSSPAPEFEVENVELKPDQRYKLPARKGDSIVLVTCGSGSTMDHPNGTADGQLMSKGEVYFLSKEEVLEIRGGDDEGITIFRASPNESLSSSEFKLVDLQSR
The assay can be described thus: HPLC of ABEE-labelled products. The note with it: 2.5 mM substrate, 10 mM MgCl2, pH 7.4, 30 °C, 6 h; products D-glucose 6-phosphate and D-mannose 6-phosphate.

Assay [2] deals with T1, phosphomannose isomerase (LC500563). The assay can be described thus: HPLC of ABEE-labelled products; D-glucose 6-phosphate formation. The note with it: read-out: % inhibition at 37.5 mM.
For assay [3] the target is unchanged. The assay can be described thus: HPLC of ABEE-labelled products; D-mannose 6-phosphate formation. The note with it: read-out: % inhibition at 37.5 mM.
Assay [4] concerns the target T2, fructokinase (LC500344) (Hyaloperonospora arabidopsidis, UniProt A0A7G1GEU5).
T2 construct: coding region in pGEX5X-1, N-terminal GST tag kept (58 kDa with tag), expressed in E. coli SoluBL21, GSTrap purified; equivalent to Hpa812304 of isolate Emoy2
T2 sequence (A0A7G1GEU5 1-297): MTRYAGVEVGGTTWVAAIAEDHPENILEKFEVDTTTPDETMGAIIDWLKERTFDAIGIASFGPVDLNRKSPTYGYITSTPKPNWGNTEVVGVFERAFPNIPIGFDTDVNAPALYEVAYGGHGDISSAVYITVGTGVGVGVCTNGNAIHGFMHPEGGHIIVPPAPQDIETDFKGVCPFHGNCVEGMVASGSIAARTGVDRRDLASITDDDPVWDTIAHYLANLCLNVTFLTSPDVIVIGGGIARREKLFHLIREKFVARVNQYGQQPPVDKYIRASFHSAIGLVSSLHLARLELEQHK
The assay can be described thus: Dixon plot; coupled pyruvate kinase/lactate dehydrogenase NADH assay at […] nm. The note with it: competitive with D-fructose (0.5-2.5 mM); 10-250 mM D-tagatose; 4 mM ATP, 8 mM MgCl2, pH 7.5, 25 °C; D-tagatose is also a substrate.

Take `O=P(O)(O)OC[C@H]1OC(O)(CO)[C@@H](O)[C@@H]1O` (stereo partly drawn) [D-fructose 6-phosphate]: in assay [1], the “HPLC of ABEE-labelled products” value is “both D-glucose 6-phosphate and D-mannose 6-phosphate were detected after the addition of D-fructose 6-phosphate”.

In the case of `O=P(O)(O)OC[C@H]1OC(O)(CO)[C@@H](O)[C@H]1O` (stereo partly drawn) [D-tagatose 6-phosphate], the inhibition at 37500 µM in assay [2] turned out to be 38.2%; in assay [3], 60.8%.

The molecule `OCC1(O)OC[C@@H](O)[C@H](O)[C@@H]1O` (stereo partly drawn) [D-tagatose] had a Ki in assay [4] of 70 ± 5.14 mM.

As a reminder, the inhibition is the percentage by which the read-out fell short of the control. One may read the Ki as a dissociation constant, usually derived from enzyme kinetics or from competition with a known ligand.
